Measured values as given in US6681132B1, “Sodium magnetic reasonance imaging used in diagnosing tumors and assessing response to treatment” (The Trustees of Columbia University in the City of New York, priority 1999, dated 2004).

Assays:
PC3 tumors = experiment: Inversion recovery (IR) weighted sodium MRI of PC3 tumors after chemotherapy; assay type: in vivo, nude mice; details: for increase in maximum IR sodium image intensity: PC3 tumors, 24 hrs vs predrug, 25 msec inversion time, normalized to brighter phantom, taxotere 1.5 mg, VP-16 0.2-0.4 mg, femoral vein
Experimental: (A) Chemotherapy and inversion recovery MR imaging—Following acquisition of control images, antineoplastics were administered. All IR images and SQ images were normalized to the brightest phantom within each slice (i.e., 40% Ficoll for IR and 30% Ficoll for SQ respectively). All tumors were analyzed by examining changes in intensity at the brightest—usually central area—of the tumor image. It was clearly identifiable both from manual examination with line profiles or from the pixel density histogram derived from a region of interest analysis. […] Results from PC3 tumors (solid lines, filled circles) and DU145 tumors (dashed lines, open circles) are plotted together. In two experiments with control saline injections (not shown in graphs), there were small decreases of 5.5% (NS) at 24 hours and 3.5% (NS) at 48 hours.
In vivo detection of antineoplastic effects using weighted sodium MR images—Examination of the effect of chemotherapy on the IR sodium image in a series of PC3 and DU145 tumors was studied. Control and post-therapy images were acquired in sixteen mice, and tumors in two additional mice had images reacquired at both 24 and 48 hrs following control saline injection. […] Results are plotted as change in maximum image intensity for each drug separately (top panel, FIG. 4, taxotere; bottom panel, FIG. 4, VP-16 etoposide). Elevation is significant for each drug taken separately for the more numerous PC3 tumor experiments (taxotere, 32% increase at p<0.001, n=5; VP-16, 38% increase at p<0.0005, n=7); and is also significant for all PC3 experiments measured at 48 hrs (28%, p<0.05, n=11).
All imaging experiments were performed on a high field (4.23 Tesla) whole body MRI system. A small quadrature birdcage radiofrequency coil (50 mm ID, Morris Inc.) and a high strength gradient insert coil (30 mT/m, Bruker model G-33) were employed. Acquisition parameters were TR=100 msec, TE=5.6 msec, FOV=40 mm, slice thickness=2.5 mm, flip angle=90° , inversion time=25 msec, acquisition matrix was 64×64×8. The two phantoms on all animal images shown were identical (P1-30% Ficoll in 200 mM NaCl; P2-40% Ficoll in 200 mM NaCl). All animal images were normalized to the brighter phantom (e.g. P1 on the SQ, P2 on the IR). Animals were positioned in a specially designed animal holder, allowing for reproducible tumor placement.
Two adjacent slices from a 3 dimensional gradient echo image set of a PC3 tumor are shown before (FIGS. 5, A&B) and 48 hrs after (FIGS. 5, C&D) injection of 1.5 mg taxotere to the nude mouse. […] The second example illustrates the contribution of this technique at its limit of resolution.
Inversion recovery images (25 msec inversion time) were acquired for 16 nude mouse tumors following chemotherapy. […]

LNCaP = experiment: APO-BRDU endlabelling of DNA fragmentation, flow cytometry, LNCaP; assay type: cell-based, human
Experimental: At the end of the treatment period, cells are trypsinized, resuspended in media, resuspended in PBS, resuspended in iced cold methanol free formaldehyde (1% in PBS) for 15 min, resuspended in 70% ethanol and stored at −20° C. until all samples from a given experiment are ready to run (19, 23). Using a very powerful endlabelling technique (APO-BRDU, Phoenix Flow Systems, California) which gives a dynamic range of fluorescence intensities of up to 1000 fold comparing control cells to cells with advanced DNA fragmentation. Results have been confirmed using positive and negative controls provided by Phoenix Flow Systems, camptothecin treated PC3 cells, and a SNAP treated myocyte line.
Fixed cells are labeled following kit instructions (two washes with kit buffer, overnight endlabelling, two resuspensions in a rinse buffer, exposure to fluorescent antibody and treatment with propidium iodide and RNAase. Flow cytometry is performed on a Becton/Dickenson FACStar II. Individual fluorescence intensity values for 10,000 cells are obtained for each sample.
To specifically assay DNA fragmentation, a downstream response to apoptosis, uses of a terminal deoxynucleotidyl transferase labeling approach whereby fluorescent moieties are enzymatically attached to all DNA fragment ends. (FIG. 3a) The technique which was used, has a dynamic range of approximately ×1000 (FIG. 2). This allows for making very quantitative comparisons of DNA fragmentation on a cell to cell basis using flow cytometry, and to further examine the relative drug sensitivity profiles of the 3 cell lines.

PC3 cells = experiment: Annexin V/FITC labeling of live (propidium iodide negative) cells, flow cytometry; assay type: cell-based, human
Experimental: Enhanced FITC fluorescence (annexin positive response; panel B) indicated reorientation of phosphatidylserine within the cell membrane. PI was added to detect dead cells, which was both PI and annexin positive, the latter response due to internal binding of an antibody to phosphatidylserine sites accessed through membrane rupture. Control cells were mostly PI and FITC negative. The percentage of live PC3 cells that were annexin positive (vertical axis) is plotted versus time (horizontal axis) for taxotere (10 nM; filled circles) and VP-16 (10 ug/ml; filled triangles). A one dimensional annexin histogram (FITC intensity) for live cells is shown for control (bottom insert) and after 24 hrs VP-16 (top insert). Flow cytometry was performed on the Becton/Dickenson FACStar II (APO-BrdU) or exCaliber flow system (Annexing) at the Columbia University Cancer Center and analyzed using CellQuest Software.
a) Early events—reorientation of phosphatidylserine: Live cells exposed to an Annexin V/FITC conjugated antibody. Enhanced fluorescence indicates reorientation of phosphatidylserine within the cell membrane (61, 93). Propidium iodide (PI) concurrently indicates cell viability. Since trypsin cleaves the annexin binding site, for dissociating cells from explanted tumor, trypsin containing collagenase preparations were not used. Cells are dissociated by mincing the tumor with surgical scissors and passing tissue repeatedly through needles while increasing the gauge. Cells are removed from tissue culture plates using 1 mM EDTA in Ca/Mg free PBS.
Flow cytometry was used to examine a second, presumably an earlier event in the apoptotic cascade, reorientation of phosphatidylserine within the cell membrane (FIG. 3.B.). Live cells were exposed to an annexin\V/FITC conjugated antibody. For annexin labeling, cells were cultured for 1 day, treated, then lifted off the culture plate using PBS plus EDTA and exposed to Annexin V/FITC conjugated antibody. Trypsin—which cleaves the antibody binding site—was avoided.

[1] = 24 hrs, VP-16 10 μg/ml, taxotere 10 nM

In the case of `COc1cc([C@@H]2c3cc4c(cc3[C@@H](O[C@@H]3O[C@@H]5CO[C@@H](C)O[C@H]5[C@H](O)[C@H]3O)[C@H]3COC(=O)[C@H]23)OCO4)cc(OC)c1O` [VP-16, etoposide], the “increase in maximum IR sodium image intensity” value (PC3 tumors) is reported as 38%, the “detectability of tumor on IR image” value (PC3 tumors; elongated PC3 tumor, 24 hr after injection of 0.3 mg) is reported as “readily apparent following chemotherapy” and the DNA fragmentation response (LNCaP; 24 hrs) is reported as “almost no response”. For the same compound, the DNA fragmentation response (LNCaP; 44 hrs) was “significant DNA fragmentation”, the “fraction of live cells (propidium iodide negative) in the annexin V positive peak” value (PC3 cells; 10 μg/ml, maximum response (24 hrs)) was “Up to ⅔” and the “annexin V response” value (PC3 cells; 17 hrs, 10 μg/ml) was “apparent”. The “annexin V response” value (PC3 cells; [1]) was “pronounced” and the “standard dose relative to Kd of annexin V dose response curve” value (PC3 cells; Kd measured at 24 hrs, standard dose 10 μg/ml) was “approximately 3 ×Kd”.

In the case of `CC(=O)O[C@@]12CO[C@@H]1C[C@H](O)[C@@]1(C)C(=O)[C@H](O)C3=C(C)[C@@H](OC(=O)[C@H](O)[C@@H](NC(=O)OC(C)(C)C)c4ccccc4)C[C@@](O)([C@@H](OC(=O)c4ccccc4)[C@H]21)C3(C)C` [taxotere], the “spatial change of tumor on inversion recovery image” value (PC3 tumors; PC3 tumor, 48 hrs after injection of 1.5 mg) is reported as “clear spatial broadening of the tumor”, the “increase in maximum IR sodium image intensity” value (PC3 tumors) is reported as 32% and the DNA fragmentation response (LNCaP; 24 hrs) is reported as “almost no response”. The DNA fragmentation response (LNCaP; 44 hrs) was “significant DNA fragmentation”, the “time by which markers for apoptosis were detectable” value (PC3 cells; 10 nMol/L in culture) was ≤ 24 h and the “time by which markers for apoptosis were pronounced” value (PC3 cells; 10 nMol/L in culture) was ≤ 48 h. For the same compound, the “annexin V response” value (PC3 cells; [1]) was “much less pronounced”, the “standard dose relative to Kd of annexin V dose response curve” value (PC3 cells; Kd measured at 48 hrs, standard dose 10 nM) was “approximately 3 ×Kd” and the “annexin V response” value (PC3 cells; higher drug concentrations (10.0 μM) or later times (e.g. 48 hrs)) was “substantially greater”.
